Measurements from patent US7625948B2, “Ester compound and medicinal use thereof” (Japan Tobacco Inc., priority 2002, dated 2009).

Test system: HepG2 cells
Assay: Test Example 2: inhibition of apolipoprotein B secretion from HepG2 cells, ELISA (also used for metabolites in Test Example 8)
Assay type: cell-based
Details: Homo sapiens, 24 hours, apo B in supernatant by ELISA, read-out: Test Example 2 Inhibition of apo B secretion IC50
Experimental: Inhibition of Apolipoprotein B Secretion from HepG2 Cells
HepG2 cells were suspended in Dulbecco's Modified Eagle's Medium (DMEM) (containing 10% fetal bovine serum, 100 units/mL penicillin and 100 μg/mL streptomycin), and placed on a 96-well plate (4×10^4 cells/well), then incubated for 24 hours. After removal of the medium, DMEM was replaced by a medium containing a sample dissolved in DMSO or a medium containing DMSO (concentration of DMSO: 0.5%) and incubation was further performed for 24 hours, after which the supernatant was recovered, and concentration of apo B in the supernatant was assayed by Enzyme-Linked Immunosorbent Assay (ELISA)
ELISA was carried out as follows. Anti-human apo B monoclonal antibody (0.5 μg/well) diluted with a solution of sodium carbonate in sodium bicarbonate buffer (50 mL, pH 9.6) was placed in a 96-well plate for ELISA, and allowed to stand at room temperature for 15 hours. After washing the plate, a blocking solution (250 μL/well) was placed in the well, and allowed to stand at room temperature for 1.5 hours. After washing the plate, a standard and a sample (100 μL/well) were placed in the well and allowed to stand at room temperature for one hour. The standard was prepared by adjusting the concentration of the purified human apo B with the DMEM to 0 to 1000 ng/mL. After washing the plate, an anti-human apo B polyclonal antibody labeled with a horse radish peroxidase which was diluted in 1:1000 with DEME (100 μL/well), and allowed to stand at room temperature for one hour. After washing the plate, 2,2-azinobis(3-ethylbenzothiazoline-6-sulfonic acid) solution (100 μL/well) was placed in the well, and allowed to stand at room temperature for one hour. The reaction was stopped by addition of 2% oxalic acid (100 μL/well), and absorbency at 405 nm was measured. Concentration of apo B in the sample was calculated on the basis of a standard curve of the standard. Inhibition rate (%) was calculated from the assayed values in accordance with the following equation.
Inhibition rate (%)=100×(1 minus (concentration of apo B in sample group/concentration of apo B in DMSO group).
Based on the above equation, 50% inhibition concentration (IC50) was determined.
Inhibitory Activity on MTP and apo B Secretion Inhibition by Metabolites
In a similar manner to Test Examples 1 and 2, the activity of metabolites was assayed.

## CCOC(=O)C(COC(=O)Cc1ccc(NC(=O)c2ccc(Cl)cc2-c2ccc(C(F)(F)F)cc2)c(C(=O)N(C)C)c1)(C(=O)OCC)c1ccccc1 [Example 2-54]
  IC50: 8.5 nM

## CCOC(=O)C(COC(=O)Cc1ccc(NC(=O)c2cccc(C)c2-c2ccc(C(F)(F)F)cc2)c(C(=O)N(C)C)c1)(C(=O)OCC)c1ccccc1 [Example 2-55]
  IC50: 4.2 nM

## CN(C)C(=O)c1cc(CC(=O)OCC(C(=O)OCC(F)(F)F)(C(=O)OCC(F)(F)F)c2ccccc2)ccc1NC(=O)c1ccccc1-c1ccc(C(F)(F)F)cc1 [Example 2-56]
  IC50: 0.93 nM

## CCOC(=O)C(COC(=O)Cc1ccc(NC(=O)c2ccccc2-c2ccc(C(F)(F)F)cc2F)c(C(=O)N(C)C)c1)(C(=O)OCC)c1ccccc1 [Example 2-57]
  IC50: 0.56 nM

## CCOC(=O)C(COC(=O)Cc1cc(C(=O)N(C)C)c(NC(=O)c2ccccc2-c2ccc(C(F)(F)F)cc2)cc1F)(C(=O)OCC)c1ccccc1 [Example 2-58]
  IC50: 1.9 nM

## CCOC(=O)C(COC(=O)Cc1cc(Br)c(NC(=O)c2ccccc2-c2ccc(C(F)(F)F)cc2)c(C(=O)N(C)C)c1)(C(=O)OCC)c1ccccn1 [Example 2-59]
  IC50: 0.99 nM

## CCOC(=O)C(COC(=O)Cc1cc(Cl)c(NC(=O)c2ccccc2-c2ccc(C(F)(F)F)cc2)c(C(=O)N(C)C)c1)(C(=O)OCC)c1ccccc1 [Example 2-60]
  IC50: 1.3 nM

## CCOC(=O)C(COC(=O)Cc1ccc(NC(=O)c2ccccc2-c2ccc(C(F)(F)F)c(F)c2)c(C(=O)N(C)C)c1)(C(=O)OCC)c1ccccc1 [Example 2-61]
  IC50: 0.38 nM

## CCOC(=O)C(COC(=O)Cc1ccc(NC(=O)c2ccccc2-c2ccc(C(F)(F)F)c(Cl)c2)c(C(=O)N(C)C)c1)(C(=O)OCC)c1ccccc1 [Example 2-62]
  IC50: 0.37 nM

## CCOC(=O)C(COC(=O)Cc1cc(C(=O)N(C)C)c(NC(=O)c2ccccc2-c2ccc(C(F)(F)F)cc2)c(Cl)c1F)(C(=O)OCC)c1ccccc1 [Example 2-66]
  IC50: 57 nM

## CCOC(=O)C(COC(=O)Cc1cc(C(=O)N(C)C)c(NC(=O)c2ccccc2-c2ccc(C(F)(F)F)cc2)c(Br)c1F)(C(=O)OCC)c1ccccc1 [Example 2-67]
  IC50: 43 nM

## CCOC(=O)C(COC(=O)Cc1ccc(NC(=O)c2ccccc2-c2ccc(C(F)(F)F)cc2)c(C(=O)N(C)C)c1)(C(=O)OCC)c1ccccc1C [Example 2-68]
  IC50: 2.25 nM

## CCOC(=O)C(COC(=O)Cc1ccc(NC(=O)c2ccccc2-c2ccc(C(F)(F)F)cc2)c(C(=O)N(C)C)c1)(C(=O)OCC)c1cccc(C)c1 [Example 2-69]
  IC50: 0.91 nM

## CCOC(=O)C(COC(=O)Cc1ccc(NC(=O)c2ccccc2-c2ccc(C(F)(F)F)cc2)c(C(=O)N(C)C)c1)(C(=O)OCC)c1ccc(C)cc1 [Example 2-70]
  IC50: 2.34 nM

## CCOC(=O)C(COC(=O)Cc1ccc(NC(=O)c2ccccc2-c2ccc(C(F)(F)F)cc2)c(C(=O)N(C)C)c1)(C(=O)OCC)c1ccccc1Cl [Example 2-71]
  IC50: 0.54 nM

## CCOC(=O)C(COC(=O)Cc1ccc(NC(=O)c2ccccc2-c2ccc(C(F)(F)F)cc2)c(C(=O)N(C)C)c1)(C(=O)OCC)c1cccc(Cl)c1 [Example 2-72]
  IC50: 0.95 nM

## CCOC(=O)C(COC(=O)Cc1ccc(NC(=O)c2ccccc2-c2ccc(C(F)(F)F)cc2)c(C(=O)N(C)C)c1)(C(=O)OCC)c1ccc(Cl)cc1 [Example 2-73]
  IC50: 2.93 nM

## CCOC(=O)CC(COC(=O)Cc1ccc(NC(=O)c2ccccc2-c2ccc(C(F)(F)F)cc2)c(C(=O)N(C)C)c1)(C(=O)OCC)c1ccccc1 (stereo not shown) [Example 2-74]
  IC50: 0.84 nM

## CCOC(=O)C(COC(=O)Cc1ccc(NC(=O)c2ccccc2-c2ccc(C(F)(F)F)cc2)c(C(=O)N(C)C)c1)(C(=O)OCC)c1ccccc1OC [Example 2-75]
  IC50: 12.5 nM

## CCOC(=O)C(COC(=O)Cc1ccc(NC(=O)c2ccccc2-c2ccc(C(F)(F)F)cc2)c(C(=O)N(C)C)c1)(C(=O)OCC)c1cccc(OC)c1 [Example 2-76]
  IC50: 0.85 nM

## CCOC(=O)C(COC(=O)Cc1ccc(NC(=O)c2ccccc2-c2ccc(C(F)(F)F)cc2)c(C(=O)N(C)C)c1)(C(=O)OCC)c1ccc(OC)cc1 [Example 2-77]
  IC50: 2.74 nM

## CCOC(=O)C(COC(=O)Cc1ccc(NC(=O)c2ccc(C(F)(F)F)cc2-c2ccc(C(F)(F)F)cc2)c(C(=O)N(C)C)c1)(C(=O)OCC)c1ccccc1 [Example 2-78]
  IC50: 0.14 nM

## CCOC(=O)C(COC(=O)Cc1ccc(NC(=O)c2cccc(Cl)c2-c2ccc(C(F)(F)F)cc2)c(C(=O)N(C)C)c1)(C(=O)OCC)c1ccccc1 [Example 2-79]
  IC50: 1.3 nM

## CCOC(=O)C(COC(=O)Cc1ccc(NC(=O)c2cccc(F)c2-c2ccc(C(F)(F)F)cc2)c(C(=O)N(C)C)c1)(C(=O)OCC)c1ccccc1 [Example 2-80]
  IC50: 0.79 nM

## CCOC(=O)C(CCOC(=O)Cc1ccc(NC(=O)c2ccc(C)cc2-c2ccc(C(F)(F)F)cc2)c(C(=O)N(C)C)c1)(C(=O)OCC)c1ccccc1 [Example 2-81]
  IC50: 0.96 nM

## CCOC(=O)C(COC(=O)Cc1ccc(NC(=O)c2ccc(OCC)cc2-c2ccc(C(F)(F)F)cc2)c(C(=O)N(C)C)c1)(C(=O)OCC)c1ccccc1 [Example 2-82]
  IC50: 4.41 nM

## CCOC(=O)C(COC(=O)Cc1ccc(NC(=O)c2ccc(OC(C)C)cc2-c2ccc(C(F)(F)F)cc2)c(C(=O)N(C)C)c1)(C(=O)OCC)c1ccccc1 [Example 2-83]
  IC50: 8.87 nM

## CCOC(=O)C(CCOC(=O)Cc1ccc(NC(=O)c2ccc(C(F)(F)F)cc2-c2ccc(C(F)(F)F)cc2)c(C(=O)N(C)C)c1)(C(=O)OCC)c1ccccc1 [Example 2-84]
  IC50: 2.01 nM

## CCOC(=O)C(COC(=O)Cc1ccc(NC(=O)c2cccc(OC)c2-c2ccc(C(F)(F)F)cc2)c(C(=O)N(C)C)c1)(C(=O)OCC)c1ccccc1 [Example 2-85]
  IC50: 0.49 nM

## CCOC(=O)C(COC(=O)Cc1ccc(NC(=O)c2c(C)cccc2-c2ccc(C(F)(F)F)cc2)c(C(=O)N(C)C)c1)(C(=O)OCC)c1ccccc1 [Example 2-86]
  IC50: 0.42 nM

## CCOC(=O)C(COC(=O)Cc1ccc(NC(=O)c2ccccc2-c2ccc(C)cc2)c(C(=O)N(C)C)c1)(C(=O)OCC)c1ccccc1 [Example 2-88]
  IC50: 1.92 nM

## CCOC(=O)C(COC(=O)Cc1ccc(NC(=O)c2ccccc2-c2ccc(CC)cc2)c(C(=O)N(C)C)c1)(C(=O)OCC)c1ccccc1 [Example 2-90]
  IC50: 1.74 nM

## C=C(C)c1ccc(-c2ccccc2C(=O)Nc2ccc(CC(=O)OCC(C(=O)OCC)(C(=O)OCC)c3ccccc3)cc2C(=O)N(C)C)cc1 [Example 2-91]
  IC50: 0.54 nM

## CCOC(=O)C(COC(=O)Cc1ccc(NC(=O)c2ccccc2-c2ccc(C(C)C)cc2)c(C(=O)N(C)C)c1)(C(=O)OCC)c1ccccc1 [Example 2-92]
  IC50: 1.47 nM

## C=C(C)c1cc(C(F)(F)F)ccc1C(=O)Nc1ccc(CC(=O)OCC(C(=O)OCC)(C(=O)OCC)c2ccccc2)cc1C(=O)N(C)C [Example 2-93]
  IC50: 45.8 nM

## CCOC(=O)C(COC(=O)Cc1ccc(NC(=O)c2ccccc2Nc2cccc(C(F)(F)F)c2)c(C(=O)N(C)C)c1)(C(=O)OCC)c1ccccc1 [Example 2-95]
  IC50: 18 nM

## CCOC(=O)C(COC(=O)Cc1ccc(OC(=O)c2ccccc2-c2ccc(C(F)(F)F)cc2)c(C(=O)N(C)C)c1)(C(=O)OCC)c1ccccc1 [Example 2-96]
  IC50: 81 nM

## CCOC(=O)C(COC(=O)Cc1ccc(NC(=O)c2ccccc2Oc2cccc(C(F)(F)F)c2)c(C(=O)N(C)C)c1)(C(=O)OCC)c1ccccc1 [Example 2-97]
  IC50: 22 nM

## CCC(CC)(COC(=O)Cc1ccc(NC(=O)c2ccccc2-c2ccc(C(F)(F)F)cc2)c(C(=O)N(C)C)c1)c1ccccc1 [Example 2-98]
  IC50: 0.97 nM

## CCOC(=O)C(COC(=O)Cc1ccc(NC(=O)c2ccccc2Oc2ccc(C(F)(F)F)cc2)c(C(=O)N(C)C)c1)(C(=O)OCC)c1ccccc1 [Example 2-99]
  IC50: 19 nM

## CN(C)C(=O)c1cc(CC(=O)OCC2(c3ccccc3)CCCC2)ccc1NC(=O)c1ccccc1-c1ccc(C(F)(F)F)cc1 [Example 2-102]
  IC50: 14.6 nM

## CN(C)C(=O)c1cc(CC(=O)OCC(CO)(CO)c2ccccc2)ccc1NC(=O)c1ccccc1-c1ccc(C(F)(F)F)cc1 [Example 2-103]
  IC50: 42.6 nM

## CC(=O)OCC(COC(C)=O)(COC(=O)Cc1ccc(NC(=O)c2ccccc2-c2ccc(C(F)(F)F)cc2)c(C(=O)N(C)C)c1)c1ccccc1 [Example 2-104]
  IC50: 3.58 nM

## CCOC(=O)C(COC(=O)Cc1ccc(NC(=O)c2ccccc2-c2ccc(C(F)(F)F)cc2)c(C(=O)N(C)C)c1)(C(=O)OCC)c1cccs1 [Example 2-105]
  IC50: 0.2 nM

## CCOC(=O)C(COC(=O)Cc1ccc(NC(=O)c2ccccc2-c2ccc(C(F)(F)F)cc2)c(C(=O)N(C)C)c1)(C(=O)OCC)c1ccsc1 [Example 2-106]
  IC50: 0.44 nM

## CCOC(=O)C(COC(=O)Cc1cc(C(=O)N(C)C)c(NC(=O)c2ccccc2-c2ccc(C(F)(F)F)cc2)cn1)(C(=O)OCC)c1ccccc1 [Example 2-107]
  IC50: 50 nM
